Reference: DBAASP
In brackets after ≈: the same amount, converted by molar mass. Each block holds one compound with its values, some of them ahead of it.

Assays:
Assay in all cases: ≥ marks a high value that may be exact or a test limit, other limits are often not marked, values filed in µg/mL are converted to µM
[1] = test system: Pseudomonas aeruginosa PAK
Staphylococcus aureus = test system: Staphylococcus aureus
[2] = test system: Streptococcus gordonii Challis DL1
[3] = test system: Streptococcus mitis ATCC 903
[4] = test system: Streptococcus mutans UA159
[5] = test system: Streptococcus sanguinis NY101
[6] = test system: Bacillus subtilis ATCC 6633
[7] = test system: Escherichia coli ATCC 25922
[8] = test system: Klebsiella pneumoniae ATCC 10031
[9] = test system: Micrococcus luteus ATCC 10240
[10] = test system: Pseudomonas aeruginosa ATCC 27853
[11] = test system: Salmonella enterica subsp. enterica serovar Typhimurium ATCC 14028
[12] = test system: Shigella dysenteriae ATCC 9752
[13] = test system: Staphylococcus aureus ATCC 6538P
[14] = test system: Staphylococcus aureus TK784
[15] = test system: Staphylococcus epidermidis ATCC 12228
[16] = test system: Staphylococcus aureus ATCC BAA-1556
[17] = test system: Acinetobacter baumannii 97830
[18] = test system: Acinetobacter baumannii 9931
[19] = test system: Acinetobacter baumannii ATCC 19606
[20] = test system: Bacillus subtilis ATCC 23857
Escherichia coli 780 = test system: Escherichia coli 780
Escherichia coli 804 = test system: Escherichia coli 804
[21] = test system: Klebsiella pneumoniae ATCC 700603
[22] = test system: Pseudomonas aeruginosa 50
[23] = test system: Pseudomonas aeruginosa 73
[24] = test system: Pseudomonas aeruginosa ATCC 9027
[25] = test system: Staphylococcus aureus 113
Staphylococcus aureus 75 = test system: Staphylococcus aureus 75
[26] = test system: Staphylococcus aureus ATCC 29213
[27] = test system: Acinetobacter baumannii LMG 01041
[28] = test system: Escherichia coli LMG 15862
[29] = test system: Klebsiella aerogenes LMG 02094
[30] = test system: Klebsiella pneumoniae LMG 20218
[31] = test system: Pseudomonas aeruginosa LMG 6395

MIC [1]: 23.9 µM (≈ 62.5 µg/mL)
MIC (Staphylococcus aureus): 12.2 µM (≈ 32 µg/mL)
MIC [2]: 12.2 µM (≈ 32 µg/mL)
MIC [3]: 12.2 µM (≈ 32 µg/mL)
MIC [4]: 3.05 µM (≈ 8 µg/mL)
MIC [5]: 12.2 µM (≈ 32 µg/mL)
Structure (SMILES): CC[C@H](C)[C@H](NC(=O)[C@H](Cc1ccccc1)NC(=O)[C@H](Cc1cnc[nH]1)NC(=O)[C@H](CCCCN)NC(=O)[C@@H](NC(=O)[C@@H](N)Cc1ccccc1)[C@@H](C)CC)C(=O)N[C@@H](Cc1cnc[nH]1)C(=O)N[C@@H](CCCN=C(N)N)C(=O)N[C@@H](Cc1ccccc1)C(=O)N[C@@H](CO)C(=O)NCC(=O)NCC(=O)N[C@@H](CCCN=C(N)N)C(=O)N[C@@H](Cc1c[nH]c2ccccc12)C(=O)N[C@@H](CCCN=C(N)N)C(=O)N[C@@H](Cc1c[nH]c2ccccc12)C(=O)N[C@@H](CCCN=C(N)N)C(=O)N[C@@H](Cc1c[nH]c2ccccc12)C(=O)N[C@@H](Cc1ccccc1)C(N)=O [FIKHFIHRFSGGRWRWRWF]

MIC [6]: 1.42 µM (≈ 2 µg/mL)
MIC [7]: 1.42 µM (≈ 2 µg/mL)
MIC [8]: 1.42 µM (≈ 2 µg/mL)
MIC [9]: 2.84 µM (≈ 4 µg/mL)
MIC [10]: 5.67 µM (≈ 7.99 µg/mL)
MIC [11]: 1.42 µM (≈ 2 µg/mL)
MIC [12]: 0.709 µM (≈ 0.999 µg/mL)
MIC [13]: 1.42 µM (≈ 2 µg/mL)
MIC [14]: 5.67 µM (≈ 7.99 µg/mL)
MIC [15]: 1.42 µM (≈ 2 µg/mL)
Structure (SMILES): CC(C)C[C@H](NC(=O)[C@H](CC(C)C)NC(=O)[C@H](CCCCN)NC(=O)[C@H](CCCCN)NC(=O)[C@H](CC(C)C)NC(=O)[C@H](CC(C)C)NC(=O)[C@H](CCCCN)NC(=O)[C@H](CCCCN)NC(=O)[C@H](CC(C)C)NC(=O)[C@H](Cc1c[nH]c2ccccc12)NC(=O)[C@@H](N)CCCCN)C(N)=O [KWLKKLLKKLL]

MIC [16]: ≥ 100 µM
Structure (SMILES): CC(C)C[C@H](NC(=O)[C@H](CC(C)C)NC(=O)[C@H](CC(C)C)NC(=O)[C@H](CC(C)C)NC(=O)[C@H](CC(C)C)NC(=O)[C@H](CC(C)C)NC(=O)[C@H](CCCCN)NC(=O)[C@H](CCCCN)NC(=O)[C@@H](N)CC(C)C)C(N)=O [LKKLLLLLL]

MIC [16]: ≥ 100 µM
Structure (SMILES): CC(C)C[C@H](NC(=O)[C@H](CCCCN)NC(=O)[C@H](CC(C)C)NC(=O)[C@H](CC(C)C)NC(=O)[C@H](CC(C)C)NC(=O)[C@H](CC(C)C)NC(=O)[C@H](CC(C)C)NC(=O)[C@H](CCCCN)NC(=O)[C@@H](N)CC(C)C)C(N)=O [LKLLLLLKL]

MIC [16]: ≥ 100 µM
Structure (SMILES): CC(C)C[C@H](NC(=O)[C@H](CC(C)C)NC(=O)[C@H](CC(C)C)NC(=O)[C@H](CCCCN)NC(=O)[C@H](CC(C)C)NC(=O)[C@H](CC(C)C)NC(=O)[C@H](CC(C)C)NC(=O)[C@@H](N)CC(C)C)C(=O)N[C@@H](CCCCN)C(N)=O [LLLLKLLLK]

MIC [17]: 16 µM (≈ 22.8 µg/mL)
MIC [18]: 16 µM (≈ 22.8 µg/mL)
MIC [19]: 64 µM (≈ 91.3 µg/mL)
MIC [20]: 2 µM (≈ 2.85 µg/mL)
MIC (Escherichia coli 780): 8 µM (≈ 11.4 µg/mL)
MIC (Escherichia coli 804): ≥ 32 µM
MIC [21]: 32 µM (≈ 45.7 µg/mL)
MIC [22]: 8 µM (≈ 11.4 µg/mL)
MIC [23]: ≥ 64 µM
MIC [10]: 16 µM (≈ 22.8 µg/mL)
MIC [24]: 16 µM (≈ 22.8 µg/mL)
MIC [25]: 4 µM (≈ 5.71 µg/mL)
MIC (Staphylococcus aureus 75): 4 µM (≈ 5.71 µg/mL)
MIC [26]: 4 µM (≈ 5.71 µg/mL)
MIC [15]: 2 µM (≈ 2.85 µg/mL)
Structure (SMILES): CC(C)C[C@H](NC(=O)[C@H](CCCN=C(N)N)NC(=O)[C@H](CCCN=C(N)N)NC(=O)[C@H](Cc1c[nH]c2ccccc12)NC(=O)[C@H](Cc1c[nH]c2ccccc12)NC(=O)[C@H](Cc1c[nH]c2ccccc12)NC(=O)[C@H](CCCN=C(N)N)NC(=O)[C@H](CCCN=C(N)N)NC(=O)[C@@H](N)CC(C)C)C(N)=O [LRRWWWRRL]

MIC [17]: 16 µM (≈ 17.8 µg/mL)
MIC [18]: 16 µM (≈ 17.8 µg/mL)
MIC [19]: 64 µM (≈ 71.3 µg/mL)
MIC [20]: 8 µM (≈ 8.91 µg/mL)
MIC (Escherichia coli 780): 16 µM (≈ 17.8 µg/mL)
MIC (Escherichia coli 804): 16 µM (≈ 17.8 µg/mL)
MIC [21]: 32 µM (≈ 35.7 µg/mL)
MIC [22]: 16 µM (≈ 17.8 µg/mL)
MIC [23]: ≥ 32 µM
MIC [10]: 16 µM (≈ 17.8 µg/mL)
MIC [24]: 32 µM (≈ 35.7 µg/mL)
MIC [25]: 8 µM (≈ 8.91 µg/mL)
MIC (Staphylococcus aureus 75): 4 µM (≈ 4.46 µg/mL)
MIC [26]: 4 µM (≈ 4.46 µg/mL)
MIC [15]: 8 µM (≈ 8.91 µg/mL)
Structure (SMILES): CC(C)C[C@H](NC(=O)[C@H](CCCN=C(N)N)NC(=O)[C@H](Cc1c[nH]c2ccccc12)NC(=O)[C@H](Cc1c[nH]c2ccccc12)NC(=O)[C@H](Cc1c[nH]c2ccccc12)NC(=O)[C@H](CCCN=C(N)N)NC(=O)[C@@H](N)CC(C)C)C(N)=O [LRWWWRL]

MIC [27]: ≥ 256 µM
MIC [28]: 24 µM (≈ 37.2 µg/mL)
MIC [29]: ≥ 256 µM
MIC [30]: ≥ 256 µM
MIC [31]: ≥ 32 µM
Structure (SMILES): CC[C@H](C)[C@H](NC(=O)[C@H](CCCN=C(N)N)NC(=O)[C@H](CCCN=C(N)N)NC(=O)[C@H](CCCCN)NC(=O)[C@@H](NC(=O)[C@@H](N)CCCN=C(N)N)[C@@H](C)CC)C(=O)N[C@@H](CCCCN)C(=O)N[C@@H](CCCCN)C(=O)N[C@@H](Cc1c[nH]c2ccccc12)C(=O)N[C@@H](CC(C)C)C(=O)N[C@@H](CCCN=C(N)N)C(N)=O [RIKRRIKKWLR]

MIC [27]: ≥ 64 µM
MIC [28]: 12 µM (≈ 17.9 µg/mL)
MIC [29]: ≥ 128 µM
MIC [30]: ≥ 32 µM
MIC [31]: 16 µM (≈ 23.9 µg/mL)
Structure (SMILES): CC[C@H](C)[C@H](NC(=O)[C@H](CCCN=C(N)N)NC(=O)[C@H](CCC(N)=O)NC(=O)[C@@H](NC(=O)[C@@H](NC(=O)[C@@H](N)CCCN=C(N)N)[C@@H](C)CC)C(C)C)C(=O)N[C@@H](CCCCN)C(=O)N[C@@H](CCCCN)C(=O)N[C@@H](Cc1c[nH]c2ccccc12)C(=O)N[C@@H](CC(C)C)C(=O)N[C@@H](CCCN=C(N)N)C(N)=O [RIVQRIKKWLR]

MIC [27]: ≥ 256 µM
MIC [28]: ≥ 256 µM
MIC [29]: ≥ 256 µM
MIC [30]: ≥ 256 µM
MIC [31]: ≥ 256 µM
Structure (SMILES): CC[C@H](C)[C@H](NC(=O)[C@H](CCCN=C(N)N)NC(=O)[C@H](CCC(N)=O)NC(=O)[C@@H](NC(=O)[C@@H](NC(=O)[C@@H](N)CCCN=C(N)N)[C@@H](C)CC)C(C)C)C(=O)N[C@@H](CCCCN)C(=O)N[C@@H](CCCCN)C(=O)N[C@@H](Cc1c[nH]c2ccccc12)C(=O)N[C@@H](CCCN=C(N)N)C(N)=O [RIVQRIKKWR]

MIC [17]: ≥ 64 µM
MIC [18]: ≥ 32 µM
MIC [19]: > 128 µM
MIC [20]: 4 µM (≈ 6.53 µg/mL)
MIC (Escherichia coli 780): ≥ 64 µM
MIC (Escherichia coli 804): ≥ 64 µM
MIC [21]: 32 µM (≈ 52.3 µg/mL)
MIC [22]: ≥ 128 µM
MIC [23]: ≥ 128 µM
MIC [10]: > 128 µM
MIC [24]: > 128 µM
MIC [25]: 16 µM (≈ 26.1 µg/mL)
MIC (Staphylococcus aureus 75): 8 µM (≈ 13.1 µg/mL)
MIC [26]: 8 µM (≈ 13.1 µg/mL)
MIC [15]: 4 µM (≈ 6.53 µg/mL)
Structure (SMILES): NC(=O)[C@H](Cc1c[nH]c2ccccc12)NC(=O)[C@H](Cc1c[nH]c2ccccc12)NC(=O)[C@H](CCCN=C(N)N)NC(=O)[C@H](Cc1c[nH]c2ccccc12)NC(=O)[C@H](Cc1c[nH]c2ccccc12)NC(=O)[C@H](Cc1c[nH]c2ccccc12)NC(=O)[C@H](CCCN=C(N)N)NC(=O)[C@H](Cc1c[nH]c2ccccc12)NC(=O)[C@@H](N)Cc1c[nH]c2ccccc12 [WWRWWWRWW]
